From patent US20210379056A1, “SUBSTITUTED PYRAZOLE FUSED RING DERIVATIVE, PREPARATION METHOD THEREFOR, AND APPLICATION THEREOF” (Applied Pharmaceutical Science, Inc., priority 2018, published 2021)
Like-named read-outs stand apart in the source and are kept apart here.

How the values were obtained:
[1] = target: T1, Ret wt (Homo sapiens, UniProt P07949); experiment: HTRF kinase activity test, RET wild type; type: biochemical
T1 construct: purchased Invitrogen PV3082

[2] = target: T2, RET (V804L), activated (Homo sapiens, UniProt P07949, V804L); experiment: HTRF kinase activity test, RET V804L; type: biochemical; conditions: Table 2
T2 construct: purchased Signalchem R02-12BG-10
Description: This test combined peptide substrates and a single proprietary monoclonal antibody with HTRF technology, which was a highly sensitive and stable technology for detecting molecular interactions of proteins. The enzyme phosphorylates the substrate, then the Eu-labeled antibody binds to the phosphorylated substrate, and streptavidin-XL665 binds to all substrates. The TR-FRET signal was generated by the HTRF principle. […] Based on this, the inhibitory effect was evaluated.
The other compounds were diluted 3-fold gradiently with DMSO from the 10 mM stock solution to a total of 10 concentrations respectively.
Adding 4 volumes of distilled water to 1 volume of enzyme buffer 5×; 5 mM MgCl2; 1 mM DTT.
b) centrifuging the compound plate for 1 minute at 1000 g.
c) sealing the test board.
f) adding 4 μl of 1× kinase buffer to each well of the test plate, centrifuging the sample plate at 1000 g for 30 seconds, and placing it at room temperature for 10 minutes.
g) preparing a solution of 5× TK-substrate-biotin ([…]) in kinase buffer and 5×ATP (50 μM) in kinase buffer respectively. […]
The inhibition rate % was calculated as follows:
Inhibition rate %=[1−(fluorescence signal value of test compound−fluorescence signal value of positive control)/(average ratio of negative control−average ratio of positive control)]*100%
Ratio: generated from the measured fluorescence signal value […]

[3] = test system: TT Cell; experiment: Cell inhibitory activity test (CCK8); type: cell-based; conditions: Homo sapiens, TT, Table 3, 72 hours incubation
In short: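 Cells seeded at 4000/well, pre-incubated 24 h (37 °C, 5% CO2), then exposed to graded compound concentrations for 72 h. Viability read by CCK8 at 450 nm after 1-2 h; IC50 fitted from concentration-absorbance data.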

[4] = test system: RET wild-type, mutant and/or fusion-type; experiment: Overall statement on RET inhibitory activity (summary of Table 3); conditions: statement in words summarising Table 3
Excerpt: As shown in the above table, the example compounds of the present disclosure have improved inhibitory activity against RET wild-type, mutant and/or fusion-type.

[5] = Table 2, read-out: IC50 (nM) RET wt
[6] = Table 3, read-out: RET Enzyme (wild type) IC50

T1 sequence (P07949 29-1114): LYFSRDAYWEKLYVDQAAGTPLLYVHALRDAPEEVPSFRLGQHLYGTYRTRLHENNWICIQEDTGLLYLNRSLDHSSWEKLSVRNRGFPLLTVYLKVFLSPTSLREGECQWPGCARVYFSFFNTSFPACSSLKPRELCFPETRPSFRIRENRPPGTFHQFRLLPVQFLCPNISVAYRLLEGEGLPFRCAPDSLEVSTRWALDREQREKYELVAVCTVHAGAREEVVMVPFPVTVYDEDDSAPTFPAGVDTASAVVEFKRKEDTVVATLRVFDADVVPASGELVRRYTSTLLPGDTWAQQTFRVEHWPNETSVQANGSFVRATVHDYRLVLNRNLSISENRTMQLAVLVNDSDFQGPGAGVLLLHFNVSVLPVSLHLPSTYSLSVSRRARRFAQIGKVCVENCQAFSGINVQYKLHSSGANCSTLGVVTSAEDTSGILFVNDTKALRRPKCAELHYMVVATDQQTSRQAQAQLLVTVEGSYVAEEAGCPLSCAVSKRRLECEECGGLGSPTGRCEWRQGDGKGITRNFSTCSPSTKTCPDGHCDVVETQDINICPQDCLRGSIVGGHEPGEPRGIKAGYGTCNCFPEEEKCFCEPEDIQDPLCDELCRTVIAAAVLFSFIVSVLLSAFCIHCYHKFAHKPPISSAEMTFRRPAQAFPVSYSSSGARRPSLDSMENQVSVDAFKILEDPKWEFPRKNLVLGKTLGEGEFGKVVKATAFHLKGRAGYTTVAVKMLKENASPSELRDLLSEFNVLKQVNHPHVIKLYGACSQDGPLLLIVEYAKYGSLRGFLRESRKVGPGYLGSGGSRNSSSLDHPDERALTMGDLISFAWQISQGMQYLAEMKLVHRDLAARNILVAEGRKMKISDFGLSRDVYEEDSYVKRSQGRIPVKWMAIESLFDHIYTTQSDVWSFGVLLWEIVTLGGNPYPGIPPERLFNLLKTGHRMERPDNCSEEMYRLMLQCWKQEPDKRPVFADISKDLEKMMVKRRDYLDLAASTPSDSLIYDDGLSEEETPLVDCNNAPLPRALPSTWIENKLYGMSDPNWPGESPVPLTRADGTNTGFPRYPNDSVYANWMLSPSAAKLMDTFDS
T2 sequence (P07949 29-1114 V804L): as the sequence (P07949 29-1114) above, with V776L counted along it

IC50 [1, 5] | IC50 [1, 6] | IC50 [2] | Compound | IC50 [3] | inhibitory activity against RET wild-type, mutant and/or fusion-type [4]
0.325 nM | < 1 nM | 0.124 nM | Cn1cc(-c2cc(-c3ccc(N4CCN(C(=O)Cc5ccc(F)cn5)CC4)nc3)c3c(C#N)c(N)nn3c2)cn1 [APS069, 2-amino-4-(6-(4-(2-(5-fluoropyridin-2-yl)acetyl)piperazin-1-yl)pyridin-3-yl)-6-(1-methyl-1H-pyrazol-4-yl)pyrazolo[1,5-a]pyridine-3-carbonitrile] | 28.8 nM | excellent activity
0.418 nM | < 1 nM | 0.0759 nM | Cn1cc(-c2cc(-c3ccc(N4CCC(Cc5ccccn5)CC4)nc3)c3c(C#N)c(N)nn3c2)cn1 [APS070, 2-amino-6-(1-methyl-1H-pyrazol-4-yl)-4-(6-(4-(pyridin-2-yl-methyl)piperidin-1-yl)pyridin-3-yl)pyrazolo[1,5-a]pyridine-3-carbonitrile] | 15.6 nM | excellent activity
